From publication PMC9110766, “Structure-Based Design of 2-Aminopurine Derivatives as CDK2 Inhibitors for Triple-Negative Breast Cancer” (Frontiers in Pharmacology, 2022)

What was measured:
CDK2/cyclin A = CDK2/cyclin A (Homo sapiens, UniProt P24941); test: CDK2 inhibition, Kinase-Glo Luminescent Kinase Assay; format: biochemical; conditions: geometric means of n ⩾ 3 experiments; 10 µM ATP; read-out: IC50 against CDK2
Protocol: The IC50 values were calculated using Prism GraphPad software.

CDK1/B = conditions: ref Wang et al., 2013; cited from earlier work
CDK2/A = conditions: ref Wang et al., 2013; cited from earlier work
CDK1/cyclin B = CDK1/cyclin B (Homo sapiens, UniProt P06493); test: CDK1 inhibition, Kinase-Glo Luminescent Kinase Assay; format: biochemical
Protocol: (§1) Experiments were carried out using the Kinase-Glo® Luminescent Kinase Assays as described previously ([Kashem et al., 2007]). Briefly, all enzymatic reactions were conducted at 30°C for 40 min. The 50 µl reaction mixture contains 40 mM Tris, pH 7.4, 10 mM MgCl2, 0.1 mg/ml BSA, 1 mM DTT, 10 µM ATP, 0.2 μg/ml CDKs, and 100 μM lipid substrate. The compounds were diluted with 10% DMSO and then 5 µl of the dilution was removed and put into the subsequent reaction. The kinase activities were measured by detecting the content of remaining ATP. The luminescent signal was correlated with the amount of residual ATP and negatively correlated with the amount of kinase activity. The IC50 values were calculated using Prism GraphPad software.

CDK6/cyclin D3 = CDK6/cyclin D3 (Homo sapiens, UniProt Q00534); test: CDK6 inhibition, Kinase-Glo Luminescent Kinase Assay; format: biochemical
Protocol: as §1

[1] = Cytotoxicity (MTT) in human embryonic kidney cells; format: cell-based; conditions: 293T cells
Protocol: Standard MTT (thiazolyl blue; 3-[4,5-dimethylthiazol-2-yl]-2,5-diphenyltetrazolium bromide) assays were performed as 5 mg/ml. Briefly, MDA-MB-231 or 293T cells were seeded into 96-well plates and incubated for 24 h at 37°C. All compounds were dissolved in DMSO, and a gradient dilution series were prepared in 100 μl of cell medium, added to cells (in triplicates), and incubated for 48 h at 37°C with 5% CO2. MTT was added (5 mg/ml, 20 μl) to each plate and these mixtures were incubated for another 4 h. Then, the medium was removed, and the mixture was completely dissolved in DMSO (200 μL) after shaking for 10 min.

CDK8/cyclin C = CDK8/cyclin C (Homo sapiens, UniProt P49336); test: CDK8 inhibition, Kinase-Glo Luminescent Kinase Assay; format: biochemical
Protocol: as §1

MDA-MB-231 cells [2] = test: Cell cycle analysis (PI staining, flow cytometry); format: cell-based, human; conditions: 20 μM, 24 h, compared with negative control group
Protocol: MDA-MB-231 cells were seeded in six-well plates and incubated with 20 μM compounds 11c, 11l, 11p, and vehicle (0.2% DMSO) for 24 h. Subsequently, cells were centrifugated and washed with cold PBS buffer. After the centrifugation, the supernatants were removed, and the cells were resuspended in PBS buffer. Then, 10 μl of PI were added and the cells were incubated in the dark for 15 min at room temperature. The stained cells were analyzed by a flow cytometer (BD Accuri C6).

MDA-MB-231 cells [3] = test: Anti-proliferation test (MTT); format: cell-based; conditions: Homo sapiens, 48 h
CDK4/D1 = test system: CDK4/D1; parameters: method as in Fry et al., 2004; conditions: ref Fry et al., 2004; cited from earlier work
CDK4/D3 = test system: CDK4/D3; parameters: method as in Fry et al., 2004; conditions: ref Fry et al., 2004; cited from earlier work
CDK6/D2 = test system: CDK6/D2; parameters: method as in Fry et al., 2004; conditions: ref Fry et al., 2004; cited from earlier work

Chain of CDK8/cyclin C (P49336 whole entry): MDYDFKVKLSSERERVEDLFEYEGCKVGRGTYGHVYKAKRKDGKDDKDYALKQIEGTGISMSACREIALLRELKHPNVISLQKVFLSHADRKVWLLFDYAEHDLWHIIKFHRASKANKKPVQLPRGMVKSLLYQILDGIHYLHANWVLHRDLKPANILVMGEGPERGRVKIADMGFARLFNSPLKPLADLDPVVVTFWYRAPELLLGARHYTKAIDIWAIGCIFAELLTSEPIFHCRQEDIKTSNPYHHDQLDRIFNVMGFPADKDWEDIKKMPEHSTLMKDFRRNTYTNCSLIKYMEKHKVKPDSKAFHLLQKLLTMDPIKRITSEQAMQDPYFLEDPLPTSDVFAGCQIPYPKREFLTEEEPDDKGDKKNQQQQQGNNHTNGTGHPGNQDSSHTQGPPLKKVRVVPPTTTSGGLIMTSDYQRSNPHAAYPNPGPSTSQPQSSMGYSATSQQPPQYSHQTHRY
Chain of CDK8/cyclin C (P24863 whole entry partner): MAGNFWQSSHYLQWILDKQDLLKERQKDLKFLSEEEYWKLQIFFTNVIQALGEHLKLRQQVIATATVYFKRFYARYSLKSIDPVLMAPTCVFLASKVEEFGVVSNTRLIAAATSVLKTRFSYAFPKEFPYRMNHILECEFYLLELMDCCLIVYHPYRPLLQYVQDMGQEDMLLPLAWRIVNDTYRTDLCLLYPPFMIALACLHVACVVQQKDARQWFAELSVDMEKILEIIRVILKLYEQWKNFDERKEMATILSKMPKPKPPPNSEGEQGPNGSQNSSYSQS
Chain of CDK1/cyclin B (P06493 whole entry): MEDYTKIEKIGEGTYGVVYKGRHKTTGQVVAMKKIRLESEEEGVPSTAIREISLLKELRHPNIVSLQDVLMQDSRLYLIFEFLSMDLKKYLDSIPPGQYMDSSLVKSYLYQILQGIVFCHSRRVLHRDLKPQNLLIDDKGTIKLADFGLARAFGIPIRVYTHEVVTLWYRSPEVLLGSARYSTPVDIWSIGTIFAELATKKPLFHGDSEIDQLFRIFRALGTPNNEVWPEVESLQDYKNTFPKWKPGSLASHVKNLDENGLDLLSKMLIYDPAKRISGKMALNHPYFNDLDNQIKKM
Chain of CDK1/cyclin B (P14635 whole entry partner): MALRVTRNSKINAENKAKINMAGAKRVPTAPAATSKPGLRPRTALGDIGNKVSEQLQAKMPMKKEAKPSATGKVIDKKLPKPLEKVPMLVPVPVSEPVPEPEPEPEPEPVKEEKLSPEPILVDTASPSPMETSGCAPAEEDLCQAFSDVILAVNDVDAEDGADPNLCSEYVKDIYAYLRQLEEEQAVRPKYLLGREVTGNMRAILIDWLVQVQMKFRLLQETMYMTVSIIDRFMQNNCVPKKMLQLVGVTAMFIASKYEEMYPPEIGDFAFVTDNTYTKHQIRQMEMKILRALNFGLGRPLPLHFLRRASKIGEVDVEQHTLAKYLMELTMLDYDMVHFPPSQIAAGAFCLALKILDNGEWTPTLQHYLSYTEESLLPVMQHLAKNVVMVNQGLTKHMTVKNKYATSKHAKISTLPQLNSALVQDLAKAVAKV
Chain of CDK6/cyclin D3 (Q00534 whole entry): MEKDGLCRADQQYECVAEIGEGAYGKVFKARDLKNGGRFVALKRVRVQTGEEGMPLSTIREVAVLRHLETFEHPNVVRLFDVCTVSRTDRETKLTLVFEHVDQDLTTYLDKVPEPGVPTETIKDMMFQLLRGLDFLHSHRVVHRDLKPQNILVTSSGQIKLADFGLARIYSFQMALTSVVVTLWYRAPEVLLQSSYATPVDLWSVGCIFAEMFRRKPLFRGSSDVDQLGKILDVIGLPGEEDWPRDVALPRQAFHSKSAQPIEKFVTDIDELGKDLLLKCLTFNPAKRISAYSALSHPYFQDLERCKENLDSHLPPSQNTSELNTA
Chain of CDK6/cyclin D3 (P30281 whole entry partner): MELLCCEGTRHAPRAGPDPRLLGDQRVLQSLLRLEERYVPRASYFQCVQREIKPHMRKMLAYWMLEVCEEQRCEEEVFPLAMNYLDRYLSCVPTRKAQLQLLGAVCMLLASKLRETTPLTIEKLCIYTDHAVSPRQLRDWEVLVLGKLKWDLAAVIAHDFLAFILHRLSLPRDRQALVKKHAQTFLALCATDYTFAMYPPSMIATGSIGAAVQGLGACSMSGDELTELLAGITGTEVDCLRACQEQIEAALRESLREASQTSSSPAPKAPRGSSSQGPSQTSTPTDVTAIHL

| IC50 (CDK2/cyclin A) | melting point | IC50 (CDK1/cyclin B) | selectivity for CDK2 over CDK1 (CDK1/cyclin B; ratio of IC50 values) | IC50 (CDK6/cyclin D3) | selectivity for CDK2 over CDK6 (CDK6/cyclin D3; ratio of IC50 values) | selectivity for CDK2 over CDK8 (CDK8/cyclin C; CDK8 inhibition <20% @ 5 μM) | CDK8/cyclin C Inhibition rate @5 μM (%) (CDK8/cyclin C; compound at 5 μM, 5 µM) | inhibition at 5 µM (CDK8/cyclin C; compound at 5 μM, read-out: CDK8/cyclin C Inhibition rate @5 μM (%)) | IC50 (MDA-MB-231 cells [3]) | Compound | IC50 (CDK1/B) | IC50 (CDK2/A) | IC50 at 48 h [1] | effect on cell cycle (percentage of cells in G2/M phase) (MDA-MB-231 cells [2]) | IC50 (CDK4/D1) | IC50 (CDK4/D3) | IC50 (CDK6/D2) |
| --- | --- | --- | --- | --- | --- | --- | --- | --- | --- | --- | --- | --- | --- | --- | --- | --- | --- |
| 310 ± 20 nM | > 300 °C | – | – | – | – | – | – | – | – | Cl.Nc1cccc(-c2nc(Nc3cccc([N+](=O)[O-])c3)nc3[nH]cnc23)c1 [Compound 11a, 6-(3-aminophenyl)-N-(3-nitrophenyl)-9H-purin-2-amine hydrochloride] | 350 nM | 23 nM | – | – | – | – | – |
| 19 ± 1 nM | – | 120 ± 20 nM | 4.6 to 6.3 fold | 2700 ± 500 nM | more than 140 fold | more than 140 fold | 11% | < 20% | 8110 to 15700 nM | Cl.NCc1cccc(-c2nc(Nc3ccc(S(N)(=O)=O)cc3)nc3[nH]cnc23)c1 [Compound 11l, 4-((6-(3-(aminomethyl)phenyl)-9H-purin-2-yl)amino)benzenesulfonamide hydrochloride] | – | – | > 100000 nM | increased the percentage of cells in the G2/M phase | – | – | – |
| – | – | – | – | – | – | – | – | – | – | CC(=O)c1c(C)c2cnc(Nc3ccc(N4CCNCC4)cn3)nc2n(C2CCCC2)c1=O [Palbociclib] | – | – | – | – | […] | […] | 15 nM |
